SMILES strings stand for the structures.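 Step 1: Grow cells in 96-well plates. Step 2: Expose to compound for 48 hours at 5 concentrations. Step 3: Interpolate endpoints linearly; if unreached, use highest concentration. GI50 = concentration required for 50% inhibition of growth. The concentration for full growth arrest is given as TGI.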

What all share (assay): NCI-60 cell line screen, 48 h
Assay [1] relates to SK-MEL-5 melanoma.
Assay [2] relates to A498 renal.
Assay [3] has as its system SK-MEL-28 melanoma.
Assay [4] has as its system DU-145 prostate.
Assay [5] relates to SF-268 CNS.
Assay [6] deals with SNB-75 CNS.
Assay [7] concerns HCT-15 colon.
Assay [8] has as its system U251 CNS.
Assay [9] deals with IGROV1 ovarian.
The test system of assay [10] is K-562 leukemia.

As to `Nc1n[nH]c2ccc([C@@H]3Nc4ccc5cn[nH]c5c4[C@H]4C5CCC(C5)[C@@H]34)cc12` (some centres undefined), the GI50 is 0.355 µM in [1]; 0.181 µM in [2]; 1.05 µM in assay [3]; 0.417 µM in [4]; 2.59 µM in [5]; 0.171 µM in assay [6]. Also, the GI50 in assay [7] was 0.414 µM; in assay [8], 0.436 µM; in assay [9], 0.579 µM; in assay [10] it was 0.252 µM. The TGI in assay [1] was 3.45 µM; in [2] it was 0.777 µM; in assay [3], above 100 µM; in [4] it was above 100 µM; in [5], above 100 µM; in assay [6], 3.59 µM. Besides, the TGI is above 100 µM in [7], above 100 µM in [8], 62.2 µM in [9] and above 100 µM in assay [10].

With `CC(=O)ON=C1C=CC(=C(C#N)c2ccccc2)C=C1`, the GI50 in assay [1] was 2.36 µM; in [2], 12.6 µM; in assay [3], 8.77 µM; in [4], 0.704 µM; in [5], 1.21 µM; in [6], 2 µM. The GI50 in assay [7] is 0.97 µM; in assay [8], 0.622 µM; in assay [9] it was 1 µM; in [10] it was 0.556 µM. Further, the TGI amounted to 17.7 µM in [1]; 47 µM in assay [2]; 61.4 µM in assay [3]; 2.86 µM in [4]; 6.33 µM in assay [5]; 13.7 µM in assay [6]. Besides, the TGI was 14.2 µM in assay [7], 10.5 µM in assay [8], 6.9 µM in assay [9] and above 45 µM in [10].

Regarding `O=C(/C=C/C=C/c1ccc2c(c1)OCO2)N/N=C\c1ccc(O)cc1O`, the GI50 in assay [1] is 1.63 µM; in assay [2], 2.07 µM; in [3] it was 2.97 µM; in [4], 3.46 µM; in [5], 1.73 µM; in assay [6], 1.89 µM. In addition, the GI50 was 0.776 µM in assay [7], 1.64 µM in assay [8], 2.23 µM in assay [9] and 2.83 µM in assay [10]. The TGI in assay [1] turned out to be 3.87 µM; in assay [2], 7.15 µM; in [3], 19.6 µM; in assay [4] it was 22.3 µM; in assay [5], 17.1 µM; in assay [6] it was 9.41 µM. In addition, the TGI in [7] is 21.4 µM; in [8], 23 µM; in assay [9], 14.3 µM; in [10], above 100 µM.

With `C[C@]12CC[C@@H]3c4ccc(OC(=O)N(CCCl)CCCl)cc4CC[C@H]3[C@@H]1CC[C@@H]2OP(=O)(O)O`, the GI50 was 37.7 µM in assay [1]; 16 µM in [2]; 37.3 µM in assay [3]; 59.5 µM in [4]; above 75.5 µM in [5]; 29.2 µM in assay [6]. Also, the GI50 in assay [7] was 43.5 µM; in assay [8], 33.9 µM; in assay [9] it was above 100 µM; in assay [10], above 73.5 µM. The TGI in [1] was above 100 µM; in assay [2] it was 42.2 µM; in [3], above 100 µM; in assay [4], above 100 µM; in assay [5] it was above 100 µM; in assay [6] it was above 66.7 µM. Moreover, the TGI in assay [7], in assay [8], in assay [9] and in assay [10] was above 100 µM throughout.

As to `COc1cc(C(=O)NN=C2c3ccccc3-c3ccccc32)cc(OC)c1OC`, the GI50 in assay [1] is 2.65 µM; in assay [2], 2.95 µM; in assay [3], 6.26 µM; in [4] it was 5.34 µM; in assay [5], 4.57 µM; in [6], 2.86 µM. Besides, the GI50 is 2.63 µM in assay [7], 3.3 µM in assay [8], 3.47 µM in [9] and 0.829 µM in assay [10]. For the same compound, the TGI in [1] was 18 µM; in assay [2] it was 13.9 µM; in assay [3] it was above 100 µM; in assay [4] it was 32.8 µM; in [5] it was 27.7 µM; in assay [6], 21 µM. For the same compound, the TGI in [7] is above 100 µM; in assay [8] it was 20.3 µM; in assay [9] it was 32.9 µM; in assay [10] it was 26.2 µM.

With `O=C(Nc1cccc(-n2cc(-c3ccncc3)c(-c3ccc(Cl)c(O)c3)n2)c1)Nc1ccc(Cl)c(Cl)c1`, the GI50 was 0.57 µM in [1]; 0.94 µM in assay [2]; 1.46 µM in [3]; 1.5 µM in assay [4]; 1.49 µM in assay [5]; 1.09 µM in assay [6]. Further, the GI50 in assay [7] is 1.23 µM; in assay [8] it was 1.51 µM; in assay [9] it was 1.77 µM; in assay [10], 1.41 µM. Moreover, the TGI in assay [1] is 1.16 µM; in assay [2] it was 3.17 µM; in assay [3] it was 9.85 µM; in assay [4], above 32.5 µM; in assay [5], 10.9 µM; in assay [6] it was 12.2 µM. Besides, the TGI in [7] was 29.6 µM; in assay [8] it was 9.68 µM; in assay [9], above 32.5 µM; in [10], above 32.5 µM.

Take `Nc1cc(N)c2nc(NCCc3ccc(Cl)c(Cl)c3)cnc2c1`: the GI50 in assay [1] was 13.8 µM; in assay [2], 20.3 µM; in assay [3] it was 13.4 µM; in assay [4], 17.2 µM; in assay [5] it was 4.7 µM; in [6], 14.2 µM. Further, the GI50 was 13.5 µM in assay [7], 11.7 µM in [8], 14.5 µM in assay [9] and 3.36 µM in [10]. The TGI in assay [1] stood at 27.1 µM; in assay [2], 34.5 µM; in assay [3], 26.2 µM; in assay [4], 31 µM; in assay [5] it was 17.6 µM; in assay [6] it was 27.2 µM. Also, the TGI worked out at 27.3 µM in [7], 23.9 µM in assay [8], 28.7 µM in assay [9] and 14.1 µM in assay [10].

As to `C=CC(=O)N1CCC[C@@H](n2nc(-c3ccc(Oc4ccccc4)cc3)c3c(N)ncnc32)C1`, the GI50 was above 10 µM in assay [1]; 0.46 µM in assay [2]; above 10 µM in [3]; 3.03 µM in assay [4]; above 4.98 µM in assay [5]; above 5.6 µM in assay [6]. Besides, the GI50 is above 10 µM in assay [7], 9.81 µM in assay [8], 0.418 µM in assay [9] and above 10 µM in [10]. Moreover, the TGI in assay [1] was above 10 µM; in assay [2], above 5.51 µM; in assay [3], above 10 µM; in assay [4], above 10 µM; in assay [5], above 10 µM; in assay [6], above 10 µM. The TGI in [7], in assay [8], in assay [9] and in [10] was above 10 µM throughout.

Regarding `O=C(N/N=C/c1ccncc1)c1ccc(F)cc1`, the GI50 is above 40 µM in [1]; 34.8 µM in assay [2]; above 40 µM in assay [3]; above 40 µM in assay [4]; above 40 µM in assay [5]; above 40 µM in assay [6]. Moreover, the GI50 in assay [7], in [8], in [9] and in assay [10] was above 40 µM in each case. In addition, the TGI in assay [1], in [2], in assay [3], in [4], in assay [5] and in assay [6] was above 40 µM throughout. Besides, the TGI in [7], in assay [8], in [9] and in assay [10] was above 40 µM each time.

Consider `Fc1ccc(Nc2nc3nonc3nc2Nc2ccc(I)cc2)cc1`, for which the GI50 in [1] was 0.147 µM; in assay [2] it was 0.227 µM; in assay [3], 0.34 µM; in [4] it was 0.395 µM; in assay [5] it was 0.367 µM; in [6], 0.263 µM. In addition, the GI50 was 0.302 µM in assay [7], 0.293 µM in [8], 0.217 µM in assay [9] and 0.181 µM in assay [10]. In addition, the TGI in [1] was found to be 0.325 µM; in assay [2], 0.708 µM; in assay [3], 4.63 µM; in assay [4], 16.8 µM; in assay [5] it was 17.9 µM; in assay [6] it was 11.7 µM. The TGI in [7] came out at 10.5 µM; in assay [8] it was 10.8 µM; in assay [9], 13.3 µM; in assay [10] it was 11 µM.

Turning to `COC(=O)c1c2c(c(C)[n+]([O-])c1C)C(=O)C(NCc1ccc(O)cc1)=CC2=O`, the GI50 in assay [1] is 1.27 µM; in [2] it was 1.31 µM; in assay [3], 2.26 µM; in assay [4], 1.75 µM; in [5], 1.64 µM; in [6] it was 1.67 µM. Besides, the GI50 in [7] was 1.43 µM; in assay [8], 1.77 µM; in assay [9] it was 1.59 µM; in assay [10] it was 1.63 µM. In addition, the TGI was determined as 2.59 µM in assay [1]; 2.92 µM in [2]; 4.36 µM in [3]; 3.19 µM in assay [4]; 3.53 µM in assay [5]; 3.06 µM in [6]. Further, the TGI came to 3.18 µM in [7], 5.26 µM in [8], 3.78 µM in assay [9] and 7.39 µM in assay [10].

For `Cc1cc(-c2cc(OC(=O)c3ccccc3)ccc2Cl)cc2nnc(Nc3ccc(OCCN4CCCC4)cc3)nc12`, the GI50 in assay [1] was 1.52 µM; in assay [2], 9.84 µM; in [3] it was 1.5 µM; in assay [4], 1.75 µM; in assay [5] it was 1.88 µM; in assay [6], 0.508 µM. Further, the GI50 in [7] was 0.197 µM; in assay [8], 1.65 µM; in [9] it was 1.76 µM; in [10], 0.0472 µM. Also, the TGI in assay [1] came out at 2.89 µM; in assay [3], 2.93 µM; in assay [4] it was 3.17 µM; in [5], 3.75 µM; in assay [6] it was 1.89 µM; in assay [7] it was 0.393 µM. The TGI in assay [8] was determined as 3.16 µM; in assay [9], 3.78 µM; in assay [10] it was 0.324 µM.

Regarding `COc1ncc(-c2ccc3nccc(C#CCCCCC(=O)NO)c3c2)cc1NS(=O)(=O)c1ccc(F)cc1F`, the GI50 is 0.0801 µM in assay [1]; 0.0303 µM in assay [2]; 0.0692 µM in assay [3]; 0.134 µM in assay [4]; 0.121 µM in [5]; 0.0543 µM in assay [6]. The GI50 in [7] is 0.15 µM; in [8], 0.128 µM; in assay [9], below 0.0146 µM; in assay [10] it was 1.98 µM. Further, the TGI in [1] came out at 1.34 µM; in [2], 0.0962 µM; in [3], 2.1 µM; in assay [4], 12.6 µM; in assay [5], 3.77 µM; in [6], 0.827 µM. The TGI in assay [7] was 13 µM; in assay [8], 2.67 µM; in [9] it was 0.559 µM; in assay [10] it was 16.7 µM.

The values are drawn from PubChem BioAssay (NCI).
